Assay results published in US11059823B2, “Small molecule inhibitors of the JAK family of kinases” (Janssen Pharmaceutica NV, priority 2016, dated 2021).

Key:
IL-2 pSTAT5 (JAK1/JAK3) = IL-2 pSTAT5 (JAK1/JAK3) cellular assay in PBMCs (AlphaLISA); assay type: cell-based; details: PBMC, IL-2 5 ng/mL
Method: For all compounds tested, there was measured inhibition of STAT phosphorylation with all three stimuli.
The AlphaLISA assay (based on Alpha Technology from PerkinElmer) was performed by first plating freshly thawed PBMCs (Biological Specialty Corporation) in 384-well plates at 30,000 cells per 4 μL per well in HBSS (Hanks' Balanced Salt Solution) containing 0.1% IgG (immunoglobulin G)-free, protease-free BSA (bovine serum albumin) (Jackson ImmunoResearch Cat. No. 001-000-161). The cells were then treated with 2 μL/well of compounds diluted in DMSO at half-log titrated concentrations, with a highest test concentration of 10 μM and 0.5% final DMSO concentration, for thirty minutes at 37° C. […] The cellular reactions were terminated by the addition of 2 μL/well of lysis buffer (PerkinElmer Cat. No. ALSU-PST5-A10K) followed by an incubation of five minutes at room temperature. […] Finally, the plates were read on a PerkinElmer EnVision for detection of the time-resolved fluorescence signal. The percentage of IL-2-dependent pSTAT5 inhibition was determined at the compound test concentrations; and for each compound, a dose curve was generated and the IC50 was calculated. Compound IC50 was calculated by nonlinear regression, sigmoidal dose response analysis of the half-log dilution titration curve of the compound concentration vs. Alpha signal. […]

P-gp (MDR1) = assay: MDCK-MDR1 permeability assay; assay type: in vitro ADME; details: dog
Method: Permeability measurements were conducted according to the Cyprotex protocol using the MDCK-MDR1 cell line obtained from the NIH (Rockville, Md., USA). […] The cells in this assay form a cohesive sheet of a single cell layer filing the surface area of the culture dish, also known as a confluent monolayer, and on day four the test compound was added to the apical side of the membrane and the transport of the compound across the monolayer was monitored over a time period of 60 min.
Test compounds were dissolved in DMSO at a concentration of 10 mM. The dosing solutions were prepared by diluting test compound with assay buffer (Hanks Balanced Salt Solution), pH 7.4, at a final concentration of 5 μM. For assessment of apical to basolateral (“A-B”) permeability, buffer was removed from the apical compartment and replaced with test compound dosing solution with or without the permeability glycoprotein (“PgP”, “P-gP”, “Pgp” or “P-gp”) inhibitor elacridar (2 μM). For assessment of basolateral to apical (“B-A”) permeability, buffer was removed from the companion plate and replaced with test compound dosing solution. Incubations were carried out in duplicate at 37° C. in an atmosphere of 5% CO2 with a relative humidity of 95%. Each assay included the reference markers propranolol (high permeability) and prazosin (PgP substrate). After incubation for 60 minutes, apical and basolateral samples were diluted and test compounds quantified by LC/MS/MS using an 8-point calibration in the range 0.0039 to 3 μM with appropriate dilution of the samples (receiver dilution factor=1; donor and Co dilution factor=10). The permeability coefficient (Papp) for each compound was calculated from the following equation: Papp=(dQ/dt)/(C0×S), where dQ/dt is the rate of permeation of the drug across the cells, C0 is the donor compartment concentration at time zero, and S is the area of the cell monolayer.
Papp(A-B) gives an indication of permeation extent across the cells in this assay, which is envisaged to model the transcellular transport across Pgp-expressing cells, such as Pgp-expressing gastrointestinal tract cells.

N#CC[C@H]1CC[C@H](n2c(-c3c[nH]cn3)nc3cnc4[nH]ccc4c32)CC1 [Ex. 2, 2-((1r,4r)-4-(2-(1H-Imidazol-4-yl)imidazo[4,5-d]pyrrolo[2,3-b]pyridin-1(6H)-yl)cyclohexyl)acetonitrile]
IC50 (IL-2 pSTAT5 (JAK1/JAK3)): 9 nM | Papp A→B at 60 min, 5 µM (P-gp (MDR1); MDCK-MDR1, pH 7.4, apical-to-basolateral, without elacridar, 5 μM, 60 min): 1.1 ×10⁻⁶ cm/s | Papp B→A at 60 min, 5 µM (P-gp (MDR1); MDCK-MDR1, pH 7.4, basolateral-to-apical, 5 μM, 60 min): 4.8 ×10⁻⁶ cm/s | efflux ratio at 60 min, 5 µM (P-gp (MDR1); pH 7.4, MDCK-MDR1, 5 μM, read-out: Papp(B-A)/Papp(A-B) (efflux ratio)): 4.4
